No end group written: not given here.
Legend:
rat Orexin-2 receptor = biological target: T1, rat Orexin-2 receptor (Rattus norvegicus, UniProt P56719); assay: FLIPR antagonist affinity at cloned rat OX2 receptor (RBL cells); format: cell-based; conditions: read-out: fpKi
T1 construct: expressed in transfected cells
T1 sequence (P56719 1-460): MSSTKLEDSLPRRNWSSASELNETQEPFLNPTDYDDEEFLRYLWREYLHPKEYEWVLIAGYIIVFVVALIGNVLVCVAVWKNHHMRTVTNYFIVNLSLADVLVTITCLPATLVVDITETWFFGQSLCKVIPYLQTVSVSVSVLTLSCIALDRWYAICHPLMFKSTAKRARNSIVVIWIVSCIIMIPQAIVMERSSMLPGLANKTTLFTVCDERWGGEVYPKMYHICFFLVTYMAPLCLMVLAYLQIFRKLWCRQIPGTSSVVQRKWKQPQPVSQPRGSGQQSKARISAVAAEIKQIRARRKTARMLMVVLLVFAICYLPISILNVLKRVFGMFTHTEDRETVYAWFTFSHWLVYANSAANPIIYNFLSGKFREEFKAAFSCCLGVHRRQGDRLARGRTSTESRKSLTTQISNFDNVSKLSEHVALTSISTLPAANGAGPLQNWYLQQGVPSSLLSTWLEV
Source text: (§1) Determination of Antagonist Affinity at Human Orexin-1 and 2 Receptors Using FLIPR
(§2) Adherent Chinese Hamster Ovary (CHO) cells, stably expressing the recombinant human Orexin-1 or human Orexin-2 receptors or Rat Basophilic Leukaemia Cells (RBL) stably expressing recombinant rat Orexin-1 or rat Orexin-2 receptors were maintained in culture in Alpha Minimum Essential Medium (Gibco/Invitrogen, cat. no.; 22571-020), supplemented with 10% decomplemented foetal bovine serum (Life Technologies, cat. no. 10106-078) and 400 μg/mL Geneticin G418 (Calbiochem, cat. no. 345810). Cells were grown as monolayers under 95%:5% air:CO2 at 37° C. […]
(§3) Compounds of the invention were tested in a final assay concentration range from 1.66×10^−5M to 1.58×10^−11 M. Compounds of the invention were dissolved in dimethylsulfoxide (DMSO) at a stock concentration of 10 mM. […] This final concentration of hOrexin A was equivalent to the calculated EC80 for hOrexinA agonist potency in this test system. […]
(§4) The loaded cells were then incubated for 10 min at 37° C. with test compound. The plates were then placed into a FLIPR™ (Molecular Devices, UK) to monitor cell fluorescence (λex=488 nm, λEM=540 nm) (Sullivan E, Tucker E M, Dale I L. Measurement of [Ca^2+]i using the fluometric imaging plate reader (FLIPR). In: Lambert DG (ed.), Calcium Signaling Protocols. New Jersey: Humana Press, 1999, 125-136). […]

rat Orexin-1 receptor = biological target: T2, rat Orexin-1 receptor (Rattus norvegicus, UniProt P56718); assay: FLIPR antagonist affinity at cloned rat OX1 receptor (RBL cells); format: cell-based; conditions: read-out: fpKi
T2 construct: expressed in transfected cells
T2 sequence (P56718 1-416): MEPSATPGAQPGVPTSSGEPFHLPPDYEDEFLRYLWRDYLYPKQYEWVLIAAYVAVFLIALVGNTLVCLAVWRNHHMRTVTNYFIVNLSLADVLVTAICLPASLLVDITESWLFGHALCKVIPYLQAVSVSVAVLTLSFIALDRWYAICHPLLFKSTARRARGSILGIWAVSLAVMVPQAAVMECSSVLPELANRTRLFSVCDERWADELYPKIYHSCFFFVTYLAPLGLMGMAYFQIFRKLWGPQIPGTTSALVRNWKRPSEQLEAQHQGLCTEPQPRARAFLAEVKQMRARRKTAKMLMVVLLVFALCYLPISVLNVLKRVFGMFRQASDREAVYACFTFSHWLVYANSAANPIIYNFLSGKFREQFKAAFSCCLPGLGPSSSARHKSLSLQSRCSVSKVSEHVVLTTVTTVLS
Source text: as §1, §2, §3, §4

rats [1] = conditions: cited from earlier work
rats [2] = conditions: cited from earlier work; remark: listed apart in the source
rats [3] = conditions: central administration at the onset of the normal sleep period; cited from earlier work
freely-feeding rats = conditions: central administration, 4 hour time period; cited from earlier work

Ki (rat Orexin-2 receptor)	Ki (rat Orexin-1 receptor)	Compound	also measured
0.316 to 1 nM	1 to 5.01 nM	Cc1nc(C(=O)N2CCCC[C@H]2Cc2cn3cccc(F)c3n2)c(-c2ccccc2)s1 [Example 13, 8-fluoro-2-({(2S)-1-[(2-methyl-5-phenyl-1,3-thiazol-4-yl)carbonyl]-2-piperidinyl}methyl)imidazo[1,2-a]pyridine]	
0.316 to 1 nM	1 to 5.01 nM	Cc1nc(C(=O)N2CCCC[C@H]2Cc2cn3cc(F)cc(C)c3n2)c(-c2ccccc2)s1 [Example 31, 6-fluoro-8-methyl-2-({(2S)-1-[(2-methyl-5-phenyl-1,3-thiazol-4-yl)carbonyl]-2-piperidinyl}methyl)imidazo[1,2-a]pyridine]	
		Cc1nc2ccc(NC(=O)Nc3ccnc4cccnc34)cc2o1 [SB334867]	hedonic eating (rats [1]): potently reduced; high-fat pellet self-administration (rats [2]): attenuated
		orexin-A: ligand for the orexin-1 receptor; an agonist of the orexin receptors (QPLPDCCRQKTCSCRLYELLHGAGNHAAGILTL; ends and bridges not checked; cysteine pairing not given here; UniProt O43612 34-66, looked up)	arousal (rats [3]): dose-related increase; increase of food intake over control rats receiving vehicle (freely-feeding rats): approximately four-fold

Source: patent publication US20090022670A1, “NOVEL COMPOUNDS” (priority 2007, published 2009)
